Data as given in the supplement of paper PMC10307832.

Tests used:
Assay in all cases: relative viability (nuclei count vs DMSO), 5 days (fraction); higher = more cells survive
Pifithrin_alpha = compound: CC1=CC=C(C=C1)C(=O)CN2C3=C(CCCC3)SC2=N [Pifithrin_alpha]
Outline: (§1)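 Hoechst staining, done together with fixation and permeabilisation, marked nuclei for 4× imaging and MetaXpress counting. This followed 5 days without medium change after lung cancer cell lines, kept overnight at 37 °C in 1536-well plates, were pinned with five library-drug doses (not always all listed) spaced by √10 on vehicle-anchored plates. Viability is the ratio of treated-well to vehicle-well nuclei, expressed as a median across plates. Plates passed only at control CV below 25% with at least one doubling.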

Bemcentinib = compound: Nc1nc(Nc2ccc3c(c2)CC[C@@H](N2CCCC2)CC3)nn1-c1cc2c(nn1)-c1ccccc1CCC2 [Bemcentinib]
Outline: as §1

Axitinib = compound: CNC(=O)c1ccccc1Sc1ccc2c(/C=C/c3ccccn3)n[nH]c2c1 [Axitinib]
Outline: as §1

[1] = compound: CC1=CC=C(C=C1)C(=O)CN2C3=C(CCCC3)SC2=N [Pifithrin_alpha] + Cc1nc(NC(=O)N2CCC[C@H]2C(N)=O)sc1-c1ccnc(C(C)(C)C(F)(F)F)c1 [Alpelisib] (partner 2 µM)
Outline: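 Nuclei were stained with Hoechst during a one-step fixation (final 0.05% Triton X-100, 1% formaldehyde, 1 ug/ml Hoechst) carried out 5 days after dosing, then counted on 4× images. The cells, lung cancer lines in 1536-well plates, had been dosed by pin tool the day after seeding with one drug alone or a fixed anchor-drug dose plus five library-drug doses (not always all listed) in √10 steps. Relative viability is the nuclei count in treated wells divided by that in vehicle wells, and each value is the median of duplicate plates.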

| Cell Line | relative viability (Pifithrin_alpha; 1 µM) | relative viability (Pifithrin_alpha; 3.162 µM) | relative viability (Pifithrin_alpha; 10 µM) | relative viability (Pifithrin_alpha; 31.62 µM) | relative viability (Pifithrin_alpha; 100 µM) | relative viability (Bemcentinib; 0.04 µM) | relative viability (Bemcentinib; 0.1265 µM) | relative viability (Bemcentinib; 0.4 µM) | relative viability (Bemcentinib; 1.265 µM) | relative viability (Bemcentinib; 4 µM) | relative viability (Axitinib; 0.005 µM) | relative viability (Axitinib; 0.01581 µM) | relative viability (Axitinib; 0.05 µM) | relative viability (Axitinib; 0.1581 µM) | relative viability (Axitinib; 0.5 µM) | relative viability ([1]; first compound 1 µM) | relative viability ([1]; first compound 3.162 µM) | relative viability ([1]; first compound 10 µM) | relative viability ([1]; first compound 31.62 µM) | relative viability ([1]; first compound 100 µM) |
| --- | --- | --- | --- | --- | --- | --- | --- | --- | --- | --- | --- | --- | --- | --- | --- | --- | --- | --- | --- | --- |
| HCC-15 | 0.938 | 1.02 | 0.931 | 0.674 | 0.808 | 0.964 | 1.13 | 1.05 | 1.07 | 1.07 | 1.06 | 0.99 | 1 | 0.98 | 0.947 | 0.948 | 0.902 | 0.833 | 0.659 | 0.839 |
| NCI-H2405 | 0.733 | 0.962 | 0.904 | 0.876 | 0.921 | 0.944 | 1.03 | 1.01 | 1 | 1.08 | 1 | 1.04 | 1.14 | 0.973 | 0.95 | – | 0.723 | 0.718 | 0.675 | 0.665 |
| COR-L 105 | 0.792 | 0.841 | 0.862 | 0.695 | 0.758 | 0.726 | 0.964 | 1.06 | 0.912 | 1.04 | 0.995 | 0.786 | 1.02 | 0.868 | 1.2 | 0.948 | 0.909 | 0.902 | 0.683 | 0.768 |
| ABC-1 | 0.523 | 0.85 | 0.788 | 0.55 | 0.731 | 0.78 | 1.14 | 1.16 | 0.865 | 0.984 | 0.945 | 0.863 | 0.985 | 0.812 | 1.08 | 0.945 | 0.983 | 0.732 | 0.682 | 0.661 |
| HCC-366 | 1.01 | 0.974 | 1.01 | – | 1.04 | 1.07 | 1.07 | 0.987 | 0.986 | 0.995 | 0.99 | 0.999 | 1.06 | 1 | 1.04 | 0.282 | 0.3 | 0.329 | – | 0.234 |
| NCI-H2085 | 0.892 | 0.973 | 0.947 | 0.897 | 0.959 | 0.964 | 1.03 | 0.994 | 1.02 | 0.993 | 1.02 | 1.05 | 1.03 | 0.998 | 0.998 | 0.907 | 0.972 | 0.849 | 0.706 | 0.808 |
| BEN | 0.854 | 1.02 | 1.14 | 0.93 | 1.08 | 0.833 | 1.13 | 1.08 | 0.919 | 0.894 | 0.958 | 1.01 | 0.902 | 0.868 | 0.741 | 1.01 | 1.19 | 1.14 | 0.965 | 1.22 |
| LCLC-103H | 0.996 | 0.974 | 0.959 | 0.848 | 0.887 | 0.992 | 1.07 | 0.96 | 1.04 | 0.994 | 0.946 | 0.973 | 1 | 0.959 | 0.867 | 0.971 | 0.992 | 1.1 | 0.931 | 0.939 |
| NCI-H520 | 1.05 | 0.916 | 0.96 | 0.763 | 1.1 | 0.868 | 1.08 | 0.992 | 1.02 | 1.08 | 0.974 | 0.737 | 1.07 | 0.765 | 0.992 | 1.02 | 1.24 | 0.698 | 0.472 | 0.842 |
| NCI-H1975 | 0.861 | 0.642 | 0.665 | 0.623 | 0.598 | 0.867 | 1.07 | 1 | 0.93 | 0.973 | 1.02 | 0.927 | 0.89 | 0.943 | 0.985 | 0.58 | 0.445 | 0.385 | 0.346 | 0.299 |
| NCI-H1355 | 0.849 | 0.808 | 0.645 | 0.565 | 0.713 | 0.992 | 1.08 | 1.09 | 0.974 | 1.06 | 0.945 | 1.01 | 1.05 | 0.968 | 0.901 | 0.732 | 0.587 | 0.559 | 0.489 | 0.591 |
| IA-LM | 0.853 | 0.993 | 0.555 | 0.491 | 0.418 | 0.946 | 1.19 | 0.975 | 0.995 | 0.977 | 1.03 | 0.954 | 0.987 | 0.999 | 0.88 | 0.917 | 0.757 | 0.356 | 0.442 | 0.423 |
| H3255 | 0.856 | 0.93 | 0.945 | 0.71 | 0.795 | 0.804 | 0.994 | 0.993 | 0.951 | 0.964 | 0.985 | 0.851 | 0.912 | 0.894 | 0.896 | 0.587 | 0.739 | 0.692 | 0.403 | 0.593 |
| NCI-H1915 | 0.887 | 1.03 | 0.737 | – | 1.08 | 1.01 | 1.1 | 1.05 | 0.947 | 0.958 | 1 | 1.07 | 0.982 | 0.99 | 0.999 | 0.979 | 1.11 | 1.05 | – | 1.12 |
| NCI-H2023 | 0.924 | 0.846 | 0.902 | 0.461 | 0.686 | 0.975 | 1.08 | 1.14 | 1.08 | 1.13 | 0.984 | 0.972 | 0.945 | 0.936 | 1.13 | 0.589 | 0.396 | 0.454 | 0.289 | 0.367 |
| NCI-H3122 | 0.982 | 0.999 | 0.965 | 0.745 | 1.02 | – | 1.06 | 0.977 | 1.06 | 1.06 | 0.973 | 0.985 | 1.02 | 1.02 | 1.11 | 0.859 | 0.864 | 0.912 | 0.812 | 0.917 |
